Assays:
SRS-A = assay: Anti-SRS-A action (SRS-A induced shrinkage of guinea pig ileus); design: species or system guinea pig (Hartley strain male); conditions: treated five minutes before SRS-A (20 units), 5 min; for SRS-A Inhibition Ratio % 10^-6 M: 1 µM; for SRS-A Inhibition Ratio % 10^-7 M: 0.1 µM
Experimental: (§1) The effect of the compounds (I) of the present invention in the treatment of asthma and allergic diseases were evaluated by a passive cutaneous anaphylaxis assay (PCA) in rats and by measuring anti-SRS-A action using ileus of guinea pigs.
Anti-SRS-A action (An anti-action against slow reacting substance of anaphylaxie)
Hartley strain male guinea pigs (300 to 350 grams body weight) are killed and 1.0 to 1.5 cm of ileus is immediately excised from ileocecal parts and is suspended in 10 ml of Tyrode solution (95% O2 -5% CO2 saturation) containing 10^-7 g/ml of atropine and 10^-6 g/ml of pyrilamine. SRS-A (20 units) (the amount of SRS-A showing the same shrinkage as 5 ng of histamine is defined as one unit) prepared by using sensitized guinea pig lung is given to cause shrinkage there. Then antagonistic action of test compounds treated five minutes ago against the shrinkage is measured and recorded via isotonic transducer. [formula] in which A' is a height of shrinkage of SRS-A + test compound and A is that of SRS-A.

[1] = system: passive cutaneous anaphylaxis (PCA); assay: Passive cutaneous anaphylaxis assay (PCA) in rats; type: in vivo, rat (Wister strain); conditions: oral 10 mg/kg, one hour before antigen; for inhibition in vivo at 10 mg/kg: Rattus norvegicus, po, 1 h, read-out: PCA Inhibition Ratio %
Experimental: as §1
(i) Antiserum abundant in homocytotropic antibody is prepared by the same method as Tada and Okumura did (cf. Journal of Immunology, volume 106, page 1002, […]). Thus, one mg (calculated as an amount of protein) of DNP-As (2,4-dinitrophenyl-coupled ascaris extract) prepared by methods of Strejan and Campbell (Journal of Immunology, volume 98, page 893, 1971) and of Eisen (Journal of American Chemical Society, volume 85, page 4593, 1953) and […] pertussis vaccine are administered to each paw of Wister strain rats (180 to 200 grams body weights) by dividing the dose by four. Five days later, 0.5 mg of DNP-As is adminstered into muscle of back. Eight days later from the initial immunization, blood is taken from descending aorta under anesthetizing with ether, the resulting serum is stored at -80° C. and is melted before use.
(ii) Effect of tested compounds is investigated as follows:
Anti-serum obtained by the method (i) is diluted with physiological saline solution double by double successively and 0.05 ml of each diluted solution is administered into back of Wister strain rats (140 to 160 grams body weight) subcutaneously. After 72 hours, a solution of 2 mg (calculated as protein) of DNP-As and 2.5 mg of Evand Blue dissolved in 1 ml of physiological saline solution is administered intravenously at a dose of 5 ml/kg. After thirty minutes from antigen solution administration, the animals are killed and diameters of blue spots appeared at the place where antiserum is administered are measured. The PCA test is conducted by the same method as already described using a diluted solutions of antiserum which always show 10 mm or more of spot diameters and the effect of the test compounds is judged. Thus, antiserum diluted solutions are administered to two places in back. Test compounds are administered orally at the dose of 10 mg/kg one hour before administration of antigen solution. From the skin of reacted parts of killed animals, leaked or emitted dyestuff is extracted [cf. Baeck and Steinetz: J. Pharmacol. Exp. Ther., Vol. 131, page 400 (1961)] and the amount of the dyestuff is measured. The inhibition ratio is calculated by the following expression: [formula] in which R' is an amount of dyestuff in the group treated with the test compounds and A is that in the control group.

SMILES	SRS-A Inhibition Ratio % 10^-6 M (SRS-A)	SRS-A Inhibition Ratio % 10^-7 M (SRS-A)	inhibition in vivo at 10 mg/kg [1]	PCA Inhibition Ratio % ([1]; 10 mg/kg)
Cc1c(-c2cc(Cl)ccc2Cl)oc2c(C(=O)O)cccc2c1=O [Example 76, 2',5'-dichloro-3-methylflavone-8-carboxylic acid]	65.2%	40.0%	13.2%	
CCN(CC)C(=O)c1cccc2c(=O)c(C)c(-c3ccccc3OC)oc12 [Example 12, 2'-methoxy-3-methylflavone-8-carboxylic acid N,N-diethylamide]	52.4%	8.3%	19.2%	
CCOC(=O)c1cccc2c(=O)c(C)c(-c3ccccc3OC(C)C)oc12 [Example 21, ethyl 2'-isopropoxy-3-methylflavone-8-carboxylate]	31.0%	19.8%	17.8%	
CCN(CC)C(=O)c1cccc2c(=O)c(C)c(-c3ccc(Cl)cc3Cl)oc12 [Example 81, 2',4'-dichloro-3-methylflavone-8-carboxylic acid N,N-diethylamide]	57.1%	9.8%	20.4%	
CCCCN(CC)C(=O)c1cccc2c(=O)c(C)c(-c3ccc(C)cc3C)oc12 [Example 43, 2',3,4'-trimethylflavone-8-carboxylic acid N-n-butyl-N-ethylamide]	68.1%	23.4%	18.8%	
CCOC(=O)c1cccc2c(=O)c(C)c(-c3ccccc3C)oc12 [Example 34, 2',3-dimethylflavone-8-carboxylic acid ethyl ester]	71.4%	47.6%	19.5%	
CCOC(=O)c1cccc2c(=O)c(C)c(-c3ccc(CC)cc3)oc12 [Example 45, ethyl 4'-ethyl-3-methylflavone-8-carboxylate]	52.2%	16.0%	19%	
CCOC(=O)c1cccc2c(=O)c(C)c(-c3ccccc3Cl)oc12 [Example 67, ethyl 2'-chloro-3-methylflavone-8-carboxylate]	100%	42.9%	19.8%	
CCc1ccccc1-c1oc2c(C(=O)N(CC)CC)cccc2c(=O)c1C [Example 38, 2'-ethyl-3-methylflavone-8-carboxylic acid N,N-diethylamide]	100%	29.6%	16%	
CCCCCc1ccc(-c2oc3c(C(=O)OCC)cccc3c(=O)c2C)cc1 [Example 59, ethyl 3-methyl-4'-n-pentylflavone-8-carboxylate]	38.1%	9.8%	19.4%	
CCCCN(CC)C(=O)c1cccc2c(=O)c(C)c(-c3ccc(C(C)C)cc3)oc12 [Example 50, 4'-isopropyl-3-methylflavone-8-carboxylic acid N-n-butyl-N-ethylamide]	100%	70.0%	21.4%	
CCCCCc1ccc(-c2oc3c(C(=O)O)cccc3c(=O)c2C)cc1 [Example 61]	40.7%	9.4%		22.7%
CCOC(=O)c1cccc2c(=O)c(C)c(-c3ccc(Cl)cc3Cl)oc12 [Example 80, ethyl 2',4'-dichloro-3-methylflavone-8-carboxylate]	61.7%	17.6%	21.3%	
CCNC(=O)c1cccc2c(=O)c(C)c(-c3ccccc3OCC)oc12 [Example 19, 2'-ethoxy-3-methylflavone-8-carboxylic acid N-ethylamide]	50.0%	30.0%	16%	

Reference: US4594345A, “Methylflavone-8-carboxylates” (Nippon Shinyaku Co. Ltd., priority 1982, dated 1986)
